Patent US20200278355A1, “CONJUGATED PROTEINS AND USES THEREOF” (THE SCRIPPS RESEARCH INSTITUTE, priority 2017, published 2020)

Key:
Assay type in all cases: cell-based
Conditions in all cases: 20 μM
FAM213A = target: T1, FAM213A (Homo sapiens, UniProt Q9BRX8); experiment: ABPP-SILAC BPK-29yne competition in H460 cells: FAM213A
T1 construct: Isotopically labeled H460 cell lines were generated as described above; endogenous in cells; host or cells: H460 (SILAC-labelled)
Experimental: (§1) Isotopically labeled H460 cell lines were generated as described above. Light and heavy cells were treated with compounds (20 μM) or DMSO, respectively, for 3 h, followed by labeling with the BPK-29yne (5 μM) for 30 min. Cells were washed once ice-cold PBS and lysed in 1% Triton 100-X dissolved in PBS with protease inhibitors (Sigma) by sonication. Lysate was adjusted to 1.5 mg ml^−1 in 500 μL. Samples were conjugated by CuAAC to Biotin-PEG4-azide (5 μL of 10 mM stocks in DMSO, final concentration=100 μM). CuAAC “click” mix contained TCEP, TBTA ligand and CuSO4 as detailed for isoTOP-ABPP sample preparation. Samples were further processed as detailed in: isoTOP-ABPP streptavidin enrichment and isoTOP-ABPP trypsin TEV digestion with the following exception: after overnight incubation at 37° C. with trypsin, tryptic digests were separated from the beads with Micro Bio-Spin columns (Bio-Rad) by centrifugation (1,000×g, 1 min). Beads were rinsed once with water (200 μL) and combined with tryptic digests. […]
(§2) The MS2 spectra data were extracted and searched using RAW Convertor and ProLuCID algorithm as described in isoTOP-ABPP peptide and protein quantification. […] Ratios of heavy/light (DMSO/test compound) peaks were calculated using in-house CIMAGE software. […] The mean R values and standard deviation for multiple biological experiments were calculated from the average ratios from each replicate. […]

SCP2 = target: T2, SCP2 (Homo sapiens, UniProt P22307); experiment: ABPP-SILAC BPK-29yne competition in H460 cells: SCP2
T2 construct: H460 cells or H460 cells expressing luciferase in a 10 cm plate were incubated with indicated compounds; endogenous in cells; host or cells: H460
Experimental: as §1, §2

SELO = target: T3, SELO (Homo sapiens, UniProt Q9BVL4); experiment: ABPP-SILAC BPK-29yne competition in H460 cells: SELO
T3 construct: Isotopically labeled H460 cell lines were generated as described above; endogenous in cells; host or cells: H460 (SILAC-labelled)
Experimental: as §1, §2

TXN = target: T4, TXN (Homo sapiens, UniProt P10599); experiment: ABPP-SILAC BPK-29yne competition in H460 cells: TXN
T4 construct: H460 cells or H460 cells expressing luciferase in a 10 cm plate were incubated with indicated compounds; endogenous in cells; host or cells: H460
Experimental: as §1, §2

T2 sequence (P22307 whole entry): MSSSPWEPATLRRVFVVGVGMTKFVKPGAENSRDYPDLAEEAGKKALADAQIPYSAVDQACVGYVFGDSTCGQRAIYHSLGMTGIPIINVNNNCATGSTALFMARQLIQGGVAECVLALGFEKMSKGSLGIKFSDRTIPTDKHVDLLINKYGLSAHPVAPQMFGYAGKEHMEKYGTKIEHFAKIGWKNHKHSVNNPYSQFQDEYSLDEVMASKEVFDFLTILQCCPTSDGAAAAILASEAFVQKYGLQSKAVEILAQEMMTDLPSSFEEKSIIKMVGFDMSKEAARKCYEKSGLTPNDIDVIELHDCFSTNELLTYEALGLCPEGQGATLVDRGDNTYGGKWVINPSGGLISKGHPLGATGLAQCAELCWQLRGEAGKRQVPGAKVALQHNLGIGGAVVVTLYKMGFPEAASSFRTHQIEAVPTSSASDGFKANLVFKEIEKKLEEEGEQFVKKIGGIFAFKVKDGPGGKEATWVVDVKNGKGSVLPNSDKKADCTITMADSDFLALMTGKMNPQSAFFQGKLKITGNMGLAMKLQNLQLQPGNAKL
T1 sequence (Q9BRX8 whole entry): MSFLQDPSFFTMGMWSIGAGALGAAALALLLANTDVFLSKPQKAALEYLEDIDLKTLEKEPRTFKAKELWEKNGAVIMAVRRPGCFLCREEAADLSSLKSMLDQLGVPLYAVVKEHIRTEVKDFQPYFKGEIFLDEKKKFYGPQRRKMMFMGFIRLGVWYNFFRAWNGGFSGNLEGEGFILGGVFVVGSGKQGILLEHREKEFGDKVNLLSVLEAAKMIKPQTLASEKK
T3 sequence (Q9BVL4 116-669): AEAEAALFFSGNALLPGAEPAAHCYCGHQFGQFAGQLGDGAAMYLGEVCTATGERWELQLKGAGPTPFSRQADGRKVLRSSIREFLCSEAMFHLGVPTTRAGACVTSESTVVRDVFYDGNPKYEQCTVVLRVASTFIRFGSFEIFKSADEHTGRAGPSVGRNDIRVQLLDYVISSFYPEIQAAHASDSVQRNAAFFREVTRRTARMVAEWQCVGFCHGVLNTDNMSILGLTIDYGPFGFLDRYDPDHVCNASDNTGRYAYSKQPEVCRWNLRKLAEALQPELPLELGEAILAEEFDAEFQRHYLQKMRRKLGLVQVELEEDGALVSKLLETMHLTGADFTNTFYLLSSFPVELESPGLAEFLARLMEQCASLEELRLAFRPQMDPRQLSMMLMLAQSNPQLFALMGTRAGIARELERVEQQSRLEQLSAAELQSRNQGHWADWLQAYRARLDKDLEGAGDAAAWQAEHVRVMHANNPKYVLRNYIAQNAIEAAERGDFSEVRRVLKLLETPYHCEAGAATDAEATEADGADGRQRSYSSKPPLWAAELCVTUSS
T4 sequence (P10599 whole entry): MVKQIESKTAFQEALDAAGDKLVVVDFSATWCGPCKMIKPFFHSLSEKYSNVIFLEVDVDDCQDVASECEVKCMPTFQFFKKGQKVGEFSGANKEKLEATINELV

Question: With `O=C(c1ccc(N2CCOCC2)cc1)N1CCCC(N(Cc2ccccc2)C(=O)CCl)CC1` (stereo not shown) [BPK-29, N-benzyl-2-chloro-N-(1-(4-morpholinobenzoyl)azepan-4-yl)acetamide] as the compound, how does the “BPK-29-competed BPK-29yne analysis” value (FAM213A) read?
Answer: The value was “Yes (Competed defined as showing R value ≥ 2.5 at 20 μM of test compound)”.

Question: And the “BPK-29-competed BPK-29yne analysis” value (SCP2)?
Answer: The value was “Yes (Competed defined as showing R value ≥ 2.5 at 20 μM of test compound)”.

Question: What about the “BPK-29-competed BPK-29yne analysis” value (SELO) of the same compound?
Answer: The value was “Yes (Competed defined as showing R value ≥ 2.5 at 20 μM of test compound)”.

Question: What about the “BPK-29-competed BPK-29yne analysis” value (TXN) of the same compound?
Answer: Its value is “Yes (Competed defined as showing R value ≥ 2.5 at 20 μM of test compound)”.
